According to the NIST ThermoML archive (doi:10.1021/acs.jced.8b00063):
Where “and” joins values, the source holds several entries; their conditions need not be identical. Equal entries are not always repeated.

Assays:
[1] = refractive index (Na D-line) (dimensionless); conditions: Liquid, Standard Abbe refractometry
[2] = Liquid, Ebulliometric method (Recirculating still)
[3] = refractive index (Na D-line) (dimensionless); xn = mol fraction of the nth substance listed; conditions: 293.15 K, 93.9 kPa, Liquid, Standard Abbe refractometry

CC(=O)OC(C)C [1-methylethyl ethanoate]
[1]
Conditions | refractive index
293.15 K, 93.9 kPa | 1.3774
298.15 K, 101.33 kPa | 1.37739

Conditions | vapor or sublimation pressure [kPa]
[2], 359.68 K | 93.9

CC(=O)OC(C)C [1-methylethyl ethanoate] + COc1ccccc1
[3]
Conditions | refractive index
x1 = 0.1058 | 1.5013
x1 = 0.1227 | 1.499
x1 = 0.1703 | 1.4924
x1 = 0.1794 | 1.4915
x1 = 0.2163 | 1.4872
x1 = 0.2803 | 1.4768
x1 = 0.3303 | 1.4727
x1 = 0.3684 | 1.4673
x1 = 0.4254 | 1.4561
x1 = 0.4928 | 1.4481
x1 = 0.5116 | 1.4445
x1 = 0.5769 | 1.4361
x1 = 0.6338 | 1.4272
x1 = 0.7247 | 1.4154
x1 = 0.8136 | 1.4026
x1 = 0.9006 | 1.3903
x1 = 1 | 1.3774

COc1ccccc1 [anisole]
[1]
Conditions | refractive index
293.15 K, 93.9 kPa | 1.5168 and 1.5167
298.15 K, 101.33 kPa | 1.51554

Conditions | vapor or sublimation pressure [kPa]
[2], 423.92 K | 93.9

COc1ccccc1 [anisole] + CC(=O)OC(C)C
Conditions | refractive index
[3], x2 = 0 | 1.5167

COc1ccccc1 [anisole] + CCCOC(C)=O
[3]
Conditions | refractive index
x2 = 0 | 1.5168
x2 = 0.1119 | 1.5019
x2 = 0.1399 | 1.4979
x2 = 0.1575 | 1.4954
x2 = 0.2187 | 1.4875
x2 = 0.2418 | 1.4844
x2 = 0.3387 | 1.4706
x2 = 0.354 | 1.4687
x2 = 0.4168 | 1.4603
x2 = 0.4759 | 1.4525
x2 = 0.533 | 1.4451
x2 = 0.5833 | 1.4381
x2 = 0.6096 | 1.435
x2 = 0.6683 | 1.4268
x2 = 0.7081 | 1.4203
x2 = 0.8047 | 1.4093
x2 = 0.8978 | 1.3968

COc1ccccc1 [anisole] + CCOC(C)=O
[3]
Conditions | refractive index
x2 = 0 | 1.5168
x2 = 0.1318 | 1.5002
x2 = 0.1651 | 1.4954
x2 = 0.1818 | 1.4935
x2 = 0.2131 | 1.4896
x2 = 0.2301 | 1.4867
x2 = 0.3334 | 1.4735
x2 = 0.3472 | 1.4712
x2 = 0.4119 | 1.4619
x2 = 0.4709 | 1.4548
x2 = 0.4899 | 1.4518
x2 = 0.5481 | 1.4426
x2 = 0.6353 | 1.431
x2 = 0.6467 | 1.4243
x2 = 0.718 | 1.4201
x2 = 0.7382 | 1.4142
x2 = 0.8354 | 1.3989
x2 = 0.9091 | 1.3874

COc1ccccc1 [anisole] + COC(C)=O
[3]
Conditions | refractive index
x2 = 0 | 1.5168
x2 = 0.1432 | 1.4995
x2 = 0.1704 | 1.497
x2 = 0.2986 | 1.4855
x2 = 0.3004 | 1.4826
x2 = 0.3323 | 1.4777
x2 = 0.41 | 1.4692
x2 = 0.4439 | 1.4625
x2 = 0.5057 | 1.4542
x2 = 0.5405 | 1.451
x2 = 0.6003 | 1.4372
x2 = 0.6354 | 1.4327
x2 = 0.6972 | 1.4233
x2 = 0.814 | 1.3994
x2 = 0.8577 | 1.3909
x2 = 0.9391 | 1.3743

CCOC(C)=O [ethyl acetate]
[1]
Conditions | refractive index
293.15 K, 93.9 kPa | 1.3724
298.15 K, 101.33 kPa | 1.37244

Conditions | vapor or sublimation pressure [kPa]
[2], 347.92 K | 93.9

CCOC(C)=O [ethyl acetate] + COc1ccccc1
Conditions | refractive index
[3], x1 = 1 | 1.3724

COC(C)=O [methyl ethanoate]
[1]
Conditions | refractive index
293.15 K, 93.9 kPa | 1.3615
298.15 K, 101.33 kPa | 1.36146

Conditions | vapor or sublimation pressure [kPa]
[2], 327.9 K | 93.9

COC(C)=O [methyl ethanoate] + COc1ccccc1
Conditions | refractive index
[3], x1 = 1 | 1.3615

CCCOC(C)=O [propyl ethanoate]
[1]
Conditions | refractive index
293.15 K, 93.9 kPa | 1.3841
298.15 K, 101.33 kPa | 1.38406

Conditions | vapor or sublimation pressure [kPa]
[2], 372.17 K | 93.9

CCCOC(C)=O [propyl ethanoate] + COc1ccccc1
Conditions | refractive index
[3], x1 = 1 | 1.3841
